Data on eight compounds can be found in patent US20260345485A1, “INTRATHECAL NANOPARTICLE DELIVERY FOR TREATMENT OF LEPTOMENINGEAL TUMORS WITH CORE-SHELL PARTICLES MADE OF HYPERBRANCHED POLYGLYCEROL AND POLYLACTIC ACID” (priority 2022, published 2026).

Data set [1] relates to DAOY, D341, and D283 cells. Briefly: drug combination synergy (Loewe model, CellTiter-Glo viability). It counts as cell-based. In general terms: In ATP-based viability assays light output follows the ATP content of the culture.
Data set [2] deals with DAOY cells. Briefly: DAOY intracisternal xenograft, twice-weekly treatment. The note with it: 0.25 mg/kg BMN-NPs or 0.03 mg/kg free BMN-673. The method, then:
DAOY cells (ATCC) were inoculated in 8 week J:Nu female mice at 10^5 cells suspended in 6 μL of DPBS. Tumor growth was followed by luminescence imaging twice a week, implantation. For luminescence imaging, mice were injected with 200 μL of a solution of D-Luciferin (15 mg/ml, Caliper Life Science) and imaged 5 minutes after injection using an IVIS200 in vivo imaging system (Xenogen, Caliper Life Science). An image showing light intensity (photons/second) was generated and the signal in each mouse was quantified using Living Image 4.0 software (Xenogen). On day 7 after tumor injection, all mice were randomized and treated with BMN-673 loaded NPs or free BMN-673 drug either once a week or bi-weekly for two weeks. Tumors were monitored for regression or progression with BLI, and left until neurological symptoms appeared or humane endpoint was reached (slow motion, >20% weight lose).
This study was repeated using twice-weekly dosing of 0.25 mg/kg of BMN-NPs or 0.03 mg/kg for free BMN-673 (FIGS. 7D-7F).

A short description of data set [3]: tolerability / maximum tolerated dose after intrathecal dosing. The method, then:
To investigate toxicity, healthy female nude mice were first administered a specific dose of either free BMN-673 or BMN-NPs ranging from 0.03 mg/kg to 1.25 mg/kg. The mice were monitored for weight-loss or other signs of distress, and if the dose was well tolerated, 4 additional mice were dosed and monitored (n=5).
Toxicology studies were conducted in healthy female nude mice to characterize the safety of BMN-NPs in vivo. […] Increasing doses of either BMN-NP or free BMN-673 were administered to animals. Body weight loss and overall animal health were closely monitored.

Data set [4] is described as follows: hematological toxicity after intrathecal dosing. The note with it: for blood cell counts: at MTD. The method, then:
For hematological analysis, healthy nude mice (n=5 per time point) were administered either free BMN-673 (0.05 mg/kg) or BMN-NPs (0.5 mg/kg). At 3 days and 7 days post administration, 100 μL of blood was drawn via cardiac puncture using 15 μL EDTA-coated tubes. Levels of blood cell counts were measured using HEMA VET® HV950 multispecies hematologic analyzer (Drew Scientific, Oxford, CT, USA). Spleens and livers were harvested, fixed in formalin overnight, and H&E stained for histopathological evaluation.
To further test systemic toxicity differences between BMN-NPs and free BMN, red blood cells, white blood cells, and platelet levels were monitored in mice at day 3 and day 7 following two bi-weekly administrations at MTD (FIG. 5C).

In a further data set the test system is PARP1. The note with it: cited from earlier work.
For a further data set, the system named is D341 cells. The data set can be described thus: D341 xenograft with existing spinal metastasis. It counts as in vivo, mice. Here is the method:
In the D341 model, most mice develop spinal metastasis that is detectable by IVIS imaging within 7 days of inoculation, so it was tested whether BMN-NPs and free BMN were efficacious against existing spinal metastasis by starting treatment at day 7 in the presence of leptomeningeal metastasis. […] This therapy was improved with a temozolomide (TMZ) combination approach. The synergy between TMZ and PARPi is well documented in vitro, as PARP1 trapping sensitizes cells to the DNA methylation mechanism of TMZ, but in vivo, a reduction in the PARPi dose is necessary to prevent acute toxicity.

The subject of data set [5] is DAOY cells. The data set can be described thus: DAOY intracisternal xenograft, single-dose treatment. It counts as in vivo, J:Nu mice. The note with it: single dose 0.1 mg/kg. Here is the method: Intra-cisternal transplantation of DAOY cells stably expressing luciferase was used for in vivo studies. A surgical catheter was implanted into their cisterna magna, and used for both cellular implantation and IT dosage during treatment. Mice were treated when their tumoral luminescence burden was detectable at […] BLI (unit), 7 days post-implantation. Mice were treated once, at the same dose level of 0.1 mg/kg with either BMN NPs or free BMN-673 (FIG. 7A).

The test system of data set [6] is breast, prostate and ovarian cancer. The note with it: clinical trials; cited from earlier work.
Data set [7] has as its system medulloblastoma cell line D283. Conditions: 1 micromolar Olaparib with radiation; cited from earlier work.
The format of data set [8] is in vivo. Conditions: i.v., after 20 minutes, tumor-bearing mice. The method, then: CNS retention of ^89Zr-DFO-NPs was assessed in tumor-bearing mice. A leptomeningeal metastatic medulloblastoma model was administered DAOY cells stably expressing luciferase by IT injection into the CM. […] Two mice were injected intravenously with Gd-DTPA, and imaged via MRI after 20 minutes.

[9] abbreviates: combined with BMN-673, across all cell lines.

Structures are written as SMILES. Like-named read-outs stand apart in the source and are kept apart here.

For the compound `CCc1c2c(nc3ccc(OC(=O)N4CCC(N5CCCCC5)CC4)cc13)-c1cc3c(c(=O)n1C2)COC(=O)[C@]3(O)CC` [Irinotecan], the “synergy with BMN-673” value in data set [1] (setting [9]) is reported as “did not show consistent synergist action”.

As for `O=NN(CCCl)C(=O)NC1CCCCC1` [Lomustine], the “synergy with BMN-673” value in data set [1] (setting [9]) is on record as “did not show consistent synergist action”.

The term LD50 denotes the dose at which mortality reaches 50%. High values mean lower toxicity, low ones greater toxicity. Regarding `Cn1ncnc1[C@H]1c2n[nH]c(=O)c3cc(F)cc(c23)N[C@@H]1c1ccc(F)cc1` [BMN-673, talazoparib], the tumor response entry with DAOY cells [2] is listed as “tumors continued to progress with treatment of free drug”. Besides, the body weight loss result in data set [3] (0.03 mg/kg twice a week, IT) is recorded as “less than 10%”; in data set [3] (0.05 mg/kg, single IT dose), “less than 15%”. Also, the “dose above which toxicity-related symptoms developed (lethargy, labored breathing, death)” value in data set [3] (IT) was “greater than 0.06 mg/kg”. In addition, in data set [3] (mouse, in vivo), the 50% lethal dose (LD50) was 0.125 mg/kg. The MTD in [3] (mouse, in vivo) was 0.05 mg/kg. The “lethal dose (lethal at any dose at or higher than)” value in [3] (single IT dose, J:Nu mice) is not below 0.06 mg/kg. The blood cell counts entry in data set [4] (3 days post-treatment) was “a decrease in all leukocytes except for monocytes, and also showed a reduction in platelet count”; in [4] (by 7 days), “did not show an improvement outside of basophil count”. In addition, the blood cell levels entry in data set [4] (two bi-weekly administrations, 0.05 mg/kg/week free BMN, day 3 to day 7) is “progressive leukopenia and thrombocytopenia at day 3 which did not improve appreciably at day 7”. The PARP1 trapping entry with PARP1 is on record as “potent PARP1 trap”. Further, the “effect on cerebral and spinal tumor burden” value in the data set with D341 cells (four repeat doses, free BMN-673 at equitoxic dose, start day 7) was “no effect”. Also, the tolerability entry in the data set with D341 cells (in combination with temozolomide) is “not tolerated at even the lowest doses of BMN-673”. Besides, the “body weight loss versus BMN-NP group” value in the data set on DAOY cells [5] is “lost significantly more weight than the BMN-NP group”. In addition, the “mice with tumor reduction benefit” value with DAOY cells [5] is on record as “one out five”. For the same compound, the “synergy with TMZ (combinatorial index)” value in [1] (Loewe synergy model, with temozolomide) is “high levels of synergy”. Besides, in data set [1] (incremental log-fold increases in BMN-673 in presence of TMZ), the “cell viability compared to BMN-673 alone” value is listed as “decreased viability”.

With `O=P1(N(CCCl)CCCl)NCCCO1` (stereo not shown) [Cyclophosphamide], in data set [1], the “synergy with BMN-673” value is “did not show consistent synergist action”.

As to `O=C(c1cc(Cc2n[nH]c(=O)c3ccccc23)ccc1F)N1CCN(C(=O)C2CC2)CC1` [Olaparib, olaparib], the “anti-tumour effect and side effects” value in [6] is “anti-tumour effect and side effects of grade 1 or 2”. Besides, the “DNA double stranded breaks” value in data set [7] is reported as “high levels of DSB”.

Take `O=C(O)CN(CCN(CC(=O)O)CC(=O)O)CCN(CC(=O)O)CC(=O)O.[Gd+3]` [Gd-DTPA]: the “signal in the brain by MRI” value in data set [8] is given as “no detectable Gd-DTPA signal in the brain”.

As for `CC[C@@]1(O)C(=O)OCc2c1cc1n(c2=O)Cc2cc3c(CN(C)C)c(O)ccc3nc2-1` [Topotecan], the “synergy with BMN-673” value in data set [1] (setting [9]) was “did not show consistent synergist action”.

Take `C[C@]1(c2nc3c(C(N)=O)cccc3[nH]2)CCCN1` [veliparib]: the PARP1 trapping entry in the data set on PARP1 was “relatively poor PARP1 trapping ability”.
